pIC50: −log10 of the molar value. Where two headings read alike, the source gives them in different places.
What was measured:
[1] = target: T1, JAK3 (Homo sapiens, UniProt P52333); experiment: Inhibition of a panel of kinases, in vitro HotSpot kinase assay: JAK3; assay type: biochemical; conditions: read-out: IC50 JAK3
T1 sequence (P52333 1-1124): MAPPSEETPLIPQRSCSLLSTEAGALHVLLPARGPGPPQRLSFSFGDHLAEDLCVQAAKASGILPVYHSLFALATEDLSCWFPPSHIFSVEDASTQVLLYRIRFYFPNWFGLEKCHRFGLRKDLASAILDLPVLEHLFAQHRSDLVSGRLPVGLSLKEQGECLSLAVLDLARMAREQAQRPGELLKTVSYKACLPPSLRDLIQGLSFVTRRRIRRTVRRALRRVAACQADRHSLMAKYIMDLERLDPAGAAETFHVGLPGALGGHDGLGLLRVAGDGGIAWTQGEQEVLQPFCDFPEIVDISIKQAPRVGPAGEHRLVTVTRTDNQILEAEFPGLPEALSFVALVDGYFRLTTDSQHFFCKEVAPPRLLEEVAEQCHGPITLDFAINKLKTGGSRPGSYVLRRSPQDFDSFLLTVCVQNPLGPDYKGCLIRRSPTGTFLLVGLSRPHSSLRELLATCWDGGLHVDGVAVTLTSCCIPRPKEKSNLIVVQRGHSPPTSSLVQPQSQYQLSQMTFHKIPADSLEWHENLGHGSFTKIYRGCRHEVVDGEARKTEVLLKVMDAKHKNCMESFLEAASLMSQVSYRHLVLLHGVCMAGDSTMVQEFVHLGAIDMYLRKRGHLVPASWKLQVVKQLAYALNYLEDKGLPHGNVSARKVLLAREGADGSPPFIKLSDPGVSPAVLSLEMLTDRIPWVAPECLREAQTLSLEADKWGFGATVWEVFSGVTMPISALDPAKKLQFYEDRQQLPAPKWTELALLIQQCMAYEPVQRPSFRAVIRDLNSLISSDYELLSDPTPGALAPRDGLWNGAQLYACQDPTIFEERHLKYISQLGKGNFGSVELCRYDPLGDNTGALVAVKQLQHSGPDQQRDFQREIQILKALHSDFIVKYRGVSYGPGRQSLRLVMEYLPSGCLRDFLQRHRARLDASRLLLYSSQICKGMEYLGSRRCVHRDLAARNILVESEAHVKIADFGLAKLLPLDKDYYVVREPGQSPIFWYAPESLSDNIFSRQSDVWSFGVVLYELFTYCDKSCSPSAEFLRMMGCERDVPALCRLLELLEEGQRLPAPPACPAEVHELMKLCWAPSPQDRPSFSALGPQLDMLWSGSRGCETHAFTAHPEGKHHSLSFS

[2] = target: EGFR (Homo sapiens, UniProt P00533); experiment: Inhibition of a panel of kinases, in vitro HotSpot kinase assay: EGFR; assay type: biochemical
Experimental: The degree of inhibition of a panel of kinases is determined using the in vitro HotSpot kinase assay (purified enzymes, ^33P-ATP, an appropriate substrate and 1 μM ATP).

[3] = D-compounds panel data, 1 μM ATP

Sequence of EGFR (P00533 25-1210): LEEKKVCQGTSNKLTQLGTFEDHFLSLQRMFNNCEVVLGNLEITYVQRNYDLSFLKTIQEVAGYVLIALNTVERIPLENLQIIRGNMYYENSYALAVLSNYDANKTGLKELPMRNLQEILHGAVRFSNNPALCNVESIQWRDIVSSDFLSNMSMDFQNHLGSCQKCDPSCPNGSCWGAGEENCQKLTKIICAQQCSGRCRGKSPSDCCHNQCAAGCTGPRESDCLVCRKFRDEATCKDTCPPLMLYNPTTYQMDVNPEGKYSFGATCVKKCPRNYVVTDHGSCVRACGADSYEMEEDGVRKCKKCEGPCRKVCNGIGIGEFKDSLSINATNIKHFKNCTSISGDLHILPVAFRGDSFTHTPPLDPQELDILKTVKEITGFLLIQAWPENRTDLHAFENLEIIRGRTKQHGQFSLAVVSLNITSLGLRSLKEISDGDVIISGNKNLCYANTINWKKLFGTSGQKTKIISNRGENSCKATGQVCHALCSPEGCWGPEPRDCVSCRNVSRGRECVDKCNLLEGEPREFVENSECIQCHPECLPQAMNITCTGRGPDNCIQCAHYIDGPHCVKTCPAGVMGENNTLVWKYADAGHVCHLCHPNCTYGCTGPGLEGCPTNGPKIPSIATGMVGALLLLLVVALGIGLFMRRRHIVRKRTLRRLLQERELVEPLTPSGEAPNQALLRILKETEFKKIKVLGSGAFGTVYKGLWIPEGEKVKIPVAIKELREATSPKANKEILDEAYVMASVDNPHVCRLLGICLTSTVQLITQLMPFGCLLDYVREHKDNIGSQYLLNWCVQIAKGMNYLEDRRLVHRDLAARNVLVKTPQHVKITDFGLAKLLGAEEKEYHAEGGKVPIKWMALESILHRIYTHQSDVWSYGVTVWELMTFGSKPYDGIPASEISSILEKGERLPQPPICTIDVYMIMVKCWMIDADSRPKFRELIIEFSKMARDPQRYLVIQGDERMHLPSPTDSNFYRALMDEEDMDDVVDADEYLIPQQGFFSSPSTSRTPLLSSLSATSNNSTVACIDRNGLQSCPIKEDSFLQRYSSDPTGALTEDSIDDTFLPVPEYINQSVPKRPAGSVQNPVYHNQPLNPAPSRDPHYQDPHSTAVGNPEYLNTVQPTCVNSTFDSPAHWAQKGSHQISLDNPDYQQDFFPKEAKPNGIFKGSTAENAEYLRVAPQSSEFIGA

Row | SMILES | pIC50 [1, 3] | pIC50 [2, 3] | pIC50 ([1]; E compounds, Table 17) | pIC50 ([2]; E compounds, Table 17)
1 | C[C@@H]1[C@H](NC(=O)c2ccc(C3CC3)cc2)CCCN1c1cnc(C(N)=O)c(Nc2cnc(N3CCN(C)CC3)nc2)n1 [Example D-318, 5-[(2R,3R)-3-(4-cyclopropylbenzamido)-2-methylpiperidin-1-yl]-3-{[2-(4-methylpiperazin-1-yl)pyrimidin-5-yl]amino}pyrazine-2-carboxamide] | < 5.00 | < 5.00 | – | –
2 | C[C@@H]1[C@H](NC(=O)c2ccc(C3CC3)cc2)CCCN1c1cnc(C(N)=O)c(Nc2cnn(CC3CCOCC3)c2)n1 [Example D-319, 5-[(2R,3R)-3-(4-cyclopropylbenzamido)-2-methylpiperidin-1-yl]-3-{[1-(oxan-4-ylmethyl)-1H-pyrazol-4-yl]amino}pyrazine-2-carboxamide] | < 5.00 | 5.00 to 6.00 | – | –
3 | C[C@@H]1[C@H](NC(=O)c2ccc(C3CC3)cc2)CCCN1c1cnc(C(N)=O)c(Nc2ccc(N3CCC(C(=O)N(C)C)CC3)cc2)n1 [Example D-320, 5-[(2R,3R)-3-(4-cyclopropylbenzamido)-2-methylpiperidin-1-yl]-3-({4-[4-(dimethylcarbamoyl)piperidin-1-yl]phenyl}amino)pyrazine-2-carboxamide] | 5.00 to 6.00 | 6.00 to 7.00 | – | –
4 | C[C@@H]1[C@H](NC(=O)c2ccc(C3CC3)cc2)CCCN1c1cnc(C(N)=O)c(Nc2cnn(CC3CCC(F)(F)CC3)c2)n1 [Example D-321, 5-[(2R,3R)-3-(4-cyclopropylbenzamido)-2-methylpiperidin-1-yl]-3-({1-[(4,4-difluorocyclohexyl)methyl]-1H-pyrazol-4-yl}amino)pyrazine-2-carboxamide] | < 5.00 | < 5.00 | – | –
5 | C=CC(=O)N1CC[C@@H](N(C)c2cnc(C(N)=O)c(Nc3ccc(C4(C)CCN(C5CC5)CC4)cc3)n2)C1 [Example E-104, (R)-5-((1-acryloylpyrrolidin-3-yl)(methyl)amino)-3-(4-(1-cyclopropyl-4-methylpiperidin-4-yl)phenylammo)pyrazine-2-carboxamide] | – | – | > 8.00 | ≥ 8.00
6 | C=CC(=O)N1CC[C@@H](N(C)c2cnc(C(N)=O)c(Nc3ccc(C4(C)CCN(C5CCCC5)CC4)cc3)n2)C1 [Example E-106, (R)-5-((1-acryloylpyrrolidin-3-yl)(methyl)amino)-3-(4-(1-cyclopentyl-4-methylpiperidin-4-yl)phenylamino)pyrazine-2-carboxamide] | – | – | > 8.00 | ≥ 8.00
7 | C=CC(=O)N1CCC[C@@H](Nc2cnc(C(N)=O)c(Nc3ccc(C4CCN(C5CCCC5)CC4)cc3)n2)C1 [Example E-108, (R)-5-(1-acryloylpiperidin-3-ylamino)-3-(4-(1-cyclopentylpiperidin-4-yl)phenylamino)pyrazine-2-carboxamide] | – | – | > 8.00 | ≥ 8.00

— patent US20210070748A1, “INHIBITORS OF BRUTONS TYROSINE KINASE” (Pharmacyclics LLC, priority 2015, published 2021)
